Data: patent US20170107207A1, “AMINOPYRAZOLONE DERIVATIVE” (DAIICHI SANKYO COMPANY, LIMITED, priority 2014, published 2017)

Tests used:
Type in all cases: cell-based
BxPC-3 = test: Cell growth inhibition test, BxPC-3; conditions: Homo sapiens, 72 h; BxPC-3, Pancreatic cancer, 3 days, CellTiter-Glo
Method: (§1) A cell growth inhibition test was carried out by treating a cultured cancer cell line with a test compound for a given period and then counting the number of viable cells by CellTiter-Glo Luminescent Cell Viability Assay (manufactured by Promega Corp.).
(§2) The following cells were inoculated to a 384-well plate containing the compound prepared in advance at predetermined concentrations. […]
(§3) The cells thus inoculated were cultured at 37° C. for 3 days under 5% CO2. […] Then, luminescence intensity was measured using a plate reader.
(§4) The number of viable cells and luminescence intensity have been confirmed to correlate with each other. Therefore, the rate of cell growth was calculated according to the following expression: Rate of cell growth (T/C %) of a test compound-supplemented well=100×[(B−C)/(A−C)] wherein A represents the luminescence intensity (final culture date) of a test compound-free well; B represents the luminescence intensity (final culture date) of a test compound-containing well; and C represents the luminescence intensity (day of cell inoculation) of a well at the start of contact of the cells with the test compound.
(§5) T/C % at the concentration of each of the serially diluted test compounds was determined. […]

COLO 205 = test: Cell growth inhibition test, COLO 205; conditions: Homo sapiens, 72 h; COLO 205, Large intestine cancer, 3 days, CellTiter-Glo
Method: as §1, §2, §3, §4, §5

SK-BR-3 = test: Cell growth inhibition test, SK-BR-3; conditions: Homo sapiens, 72 h; SK-BR-3, Breast cancer, 3 days, CellTiter-Glo
Method: as §1, §2, §3, §4, §5

SK-OV-3 = test: Cell growth inhibition test, SK-OV-3; conditions: Homo sapiens, 72 h; SK-OV-3, Ovary cancer, 3 days, CellTiter-Glo
Method: as §1, §2, §3, §4, §5

BT-20 = test: Cell growth inhibition test, BT-20; conditions: Homo sapiens, 72 h; BT-20, Breast cancer, 3 days, CellTiter-Glo
Method: as §1, §2, §3, §4, §5

CCRF-CEM = test: Cell growth inhibition test, CCRF-CEM; conditions: Homo sapiens, 72 h, Leukemia, 3 days, CellTiter-Glo
Method: as §1, §2, §3, §4, §5

SJSA-1 = test: Cell growth inhibition test, SJSA-1; conditions: Homo sapiens, 72 h; SJSA-1, Bone and soft tissue tumor, 3 days, CellTiter-Glo
Method: as §1, §2, §3, §4, §5

RL952 = test: Cell growth inhibition test, RL952; conditions: Homo sapiens, RL95-2, 72 h; RL952, Endometrial cancer, 3 days, CellTiter-Glo
Method: as §1, §2, §3, §4, §5

OVCAR-5 = test: Cell growth inhibition test, OVCAR-5; conditions: Homo sapiens, 72 h; OVCAR-5, Ovary cancer, 3 days, CellTiter-Glo
Method: as §1, §2, §3, §4, §5

A-498 = test: Cell growth inhibition test, A-498; conditions: Homo sapiens, A498, 72 h; A-498, Kidney cancer, 3 days, CellTiter-Glo
Method: as §1, §2, §3, §4, §5

CALU-6 = test: Cell growth inhibition test, CALU-6; conditions: Homo sapiens, 72 h; CALU-6, Lung cancer, 3 days, CellTiter-Glo
Method: as §1, §2, §3, §4, §5

HCT 116 = test: Cell growth inhibition test, HCT 116; conditions: Homo sapiens, 72 h; HCT 116, Large intestine cancer, 3 days, CellTiter-Glo
Method: as §1, §2, §3, §4, §5

A375 = test: Cell growth inhibition test, A375; conditions: Homo sapiens, A-375, 72 h; A375, Skin cancer, 3 days, CellTiter-Glo
Method: as §1, §2, §3, §4, §5

A-431 = test: Cell growth inhibition test, A-431; conditions: Homo sapiens, 72 h; A-431, Skin cancer, 3 days, CellTiter-Glo
Method: as §1, §2, §3, §4, §5

COLO 829 = test: Cell growth inhibition test, COLO 829; conditions: Homo sapiens, 72 h; COLO 829, Skin cancer, 3 days, CellTiter-Glo
Method: as §1, §2, §3, §4, §5

A549 = test: Cell growth inhibition test, A549; conditions: Homo sapiens, 72 h; A549, Lung cancer, 3 days, CellTiter-Glo
Method: as §1, §2, §3, §4, §5

ACHN = test: Cell growth inhibition test, ACHN; conditions: Homo sapiens, 72 h, Kidney cancer, 3 days, CellTiter-Glo
Method: as §1, §2, §3, §4, §5

MDA-MB-468 = test: Cell growth inhibition test, MDA-MB-468; conditions: Homo sapiens, 72 h; MDA-MB-468, Breast cancer, 3 days, CellTiter-Glo
Method: as §1, §2, §3, §4, §5

PC-3 = test: Cell growth inhibition test, PC-3; conditions: Homo sapiens, 72 h; PC-3, Prostate cancer, 3 days, CellTiter-Glo
Method: as §1, §2, §3, §4, §5

| GI50 (BxPC-3) [nM] | GI50 (COLO 205) [nM] | GI50 (SK-BR-3) [nM] | GI50 (SK-OV-3) [nM] | GI50 (BT-20) [nM] | GI50 (CCRF-CEM) [nM] | GI50 (SJSA-1) [nM] | GI50 (OVCAR-5) [nM] | GI50 (CALU-6) [nM] | GI50 (HCT 116) [nM] | GI50 (A375) [nM] | GI50 (A-431) [nM] | GI50 (COLO 829) [nM] | GI50 (A549) [nM] | GI50 (ACHN) [nM] | GI50 (MDA-MB-468) [nM] | GI50 (PC-3) [nM] | SMILES | GI50 (RL952) [nM] | GI50 (A-498) [nM] |
| --- | --- | --- | --- | --- | --- | --- | --- | --- | --- | --- | --- | --- | --- | --- | --- | --- | --- | --- | --- |
| 220 | 310 | 520 | 510 | 590 | 220 | 750 | 540 | 430 | 180 | 280 | 210 | 200 | 910 | 1800 | 170 | 1400 | CCOc1ccc(Cl)cc1C(=O)NCC(C)(C)CC(=O)Nc1c([C@H](C)CN(C)C)n(C)n(-c2ccccc2)c1=O [Example 68, 5-Chloro-N-[4-({5-[(1R)-2-(dimethylamino)-1-methylethyl]-1-methyl-3-oxo-2-phenyl-2,3-dihydro-1H-pyrazol-4-yl}amino)-2,2-dimethyl-4-oxobutyl]-2-ethoxybenzamide] | 530 | 540 |
| 440 | 850 | 1000 | 980 | 1300 | 590 | 1300 | 750 | 780 | 460 | 560 | 540 | 480 | 2000 | 2500 | 510 | 1500 | CCOc1ncc(Cl)cc1C(=O)NCC(C)(C)CC(=O)Nc1c([C@H](C)CN(C)C)n(C)n(-c2ccccc2)c1=O [Example 73, 5-Chloro-N-[4-({5-[(1R)-2-(dimethylamino)-1-methylethyl]-1-methyl-3-oxo-2-phenyl-2,3-dihydro-1H-pyrazol-4-yl}amino)-2,2-dimethyl-4-oxobutyl]-2-ethoxypyridine-3-carboxamide] | 890 | 940 |
| 370 | 720 | 650 | 700 | 850 | 530 | 870 | 570 | 680 | 230 | 260 | 390 | 350 | 1100 | 970 | 320 | 1400 | CCOc1cc(F)c(Cl)cc1C(=O)NCC(C)(C)CC(=O)Nc1c(COC)n(C)n(-c2ccccc2)c1=O [Example 113, 5-Chloro-2-ethoxy-4-fluoro-N-(4-{[5-(methoxymethyl)-1-methyl-3-oxo-2-phenyl-2,3-dihydro-1H-pyrazol-4-yl]amino}-2,2-dimethyl-4-oxobutyl)benzamide] | 870 | 430 |
